Laboratory results from patent US11633397B2, “Use of modulators of CCR5 in the treatment of cancer and cancer metastasis” (priority 2012, dated 2023).
Like-named read-outs stand apart in the source and are kept apart here.

How the values were obtained:
CCR5 = CCR5 (Homo sapiens, UniProt P51681); assay: CCL5-induced calcium signaling (Fluo-4-AM intracellular calcium assay) in MDA-MB-231 cells; format: cell-based; details: antagonist 100 nmol/L for 30 minutes before addition of CCL5
Protocol: Micrographs illustrate the axis (x-x′) of the pseudoline scan plot. Those axes were used to construct the adjacent intensity versus time plots. […] The data in FIGS. 3B and 3D are mean±SEM of 3 to 4 independent experiments. Statistical analysis was conducted using the Student t test.
Calcium responses induced either by CCL5 or FBS in human cancer cell lines were monitored under fluorescence confocal microscope as previously reported (28). Briefly, breast cancer cells were seeded in 4-well labtek chambers (Nunc) at 10^4 cells/cm^2 and incubated for 1 day. After 12-hour starvation, cells were labeled by incubating them with […] Fluo-4-AM (Molecular Probes) in HBSS for 30 minutes, washed twice, and incubated for additional 30 minutes before imaging under the microscope. Time-lapse images were collected using a Zeiss LSM 510 Meta inverted confocal microscope with the incubator at 37° C. Relative intracellular Ca^2+ concentration was determined by the changes in fluorescent intensity (FI) of Fluo-4-AM upon the addition of CCL5 (60 ng/mL) or FBS (5%) and was calculated as (FIt−FI0)/FI0.
The importance of CCR5 in HIV infection led to the development of different drugs that target this receptor.

[1] = test system: Hs578T breast cancer cells; assay: FBS-induced 3D invasion into collagen gels, Hs578T; format: cell-based, human; details: 100 nmol/L, 5% FBS as chemoattractant
Protocol: (§1) In FIG. 4A, there is shown 3D reconstruction of FBS-induced invasion into collagen gels by Hs578T breast cancer cells in presence of CCR5 antagonists (100 nmol/L). In FIG. 3C there is shown 3D reconstruction of FBS-induced invasion into collagen gels by SUM-159 breast cancer cells in presence of CCR5 antagonists (100 nmol/L).
(§2) The 3-dimensional invasion assay was conducted as previously reported (12). Briefly, 100 μL of 1.67 mg/mL Rat Tail collagen type I (BD Biosciences) was pipetted into the top chamber of a 24-well 8-μm pore Transwell (Corning). The Transwell was incubated at 37° C. overnight to allow the collagen to solidify. A total of 30,000 cells were then seeded on the bottom of the Transwell membrane and allowed to attach. Serum-free growth medium was placed into the bottom chamber, whereas 15 ng/mL CCL5 or 5% FBS was used as a chemoattractant in the medium of the upper chamber. The cells were then chemoattracted across the filter through the collagen above for 3 days. Cells were fixed in 4% formaldehyde, permeabilized with 0.2% Triton-X in PBS, and then stained with 40 μg/mL propidium iodide (PI) for 2 hours. Fluorescence was analyzed by confocal z-sections (one section every 20 μm) at ×10 magnification from the bottom of the filter using a Zeiss LSM 510 Meta inverted confocal microscope at the Kimmel Cancer Center Bioimaging Facility. […]

[2] = test system: SUM-159 breast cancer cells; assay: FBS-induced 3D invasion into collagen gels, SUM-159; format: cell-based, human; details: SUM-159 cells; 100 nmol/L; 5% FBS as chemoattractant
Protocol: as §1, §2

MDA-MB-231 cells = assay: MTT cell viability assay; format: cell-based, human; details: increasing concentrations, 48 hours
Description: In FIG. 6A, there is shown the effect of CCR5 antagonist on breast cancer cell viability. […] Graph is from a representative experiment carried out by sextuplicate. No statistical differences were found (ANOVA) in 3 independent experiments. In FIG. 6B, there is shown CCR5 expression in MDA-MB-231 cells stably transfected with pcDNA3.1+/Zeo+ (MDA.Vector) or human CCR5 cloned into pCDNA3+Zeo+ (MDA.CCR5). […] Representative experiment from 2 carried out by sextuplicate. […] Thus, the reduction in tumor mass in the lungs is due to the inhibition of “homing” or spread of tumors to the lung. […] Cells expressing eGFP were counted in 3 random fields of 2 different histologic sections (separated 700 μm from each other) per mouse (n=5 mice per group). Statistical analysis was conducted using Student t test. Bar in micrographs, 100 μm.
The MTT assay is a colorimetric assay for measuring the activity of cellular enzymes that reduce the tetrazolium dye, 3-(4,5-Dimethylthiazol-2-yl)-2,5-diphenyltetrazolium bromide, a yellow tetrazole (MTT), to its insoluble formazan, giving a purple color. […]
The effects of CCR5 antagonists on cell viability and proliferation rate were estimated using the soluble tetrazolium salt MTT assay (29). […] Then, the reduced (insoluble and colored) formazan was dissolved in DMSO and measured spectrophotometrically at 570 nm. […]

[3] = test system: MDA-MB-231 cells (MDA.pFULG) pulmonary metastases; assay: Experimental lung metastasis assay (tail vein injection of MDA.pFULG cells, BLI, histology); format: in vivo, NOD/SCID mice
Protocol: In FIG. 5A, MDA-MB-231 cells transduced with Luc2-eGFP fusion protein were injected into the tail vein of NOD/SCID mice and the in vivo bioluminescent signal was quantified weekly. […] Tumor area was quantified with the Nikon Elements BR 3.0 software analyzing at low magnification (×40) 2 random fields of 2 different histologic sections (separated 600 μm from each other) per mouse. Statistical analysis was conducted using the Student t test with Welch correction for heterogeneous variances (n=33 and 12 for control and treated groups, respectively).
MB-MDA-231 cells expressing Luc2-eGFP (called MDA.pFLUG for the rest of the article) were detached with a nonenzymatic cell dissociation buffer (4 mmol/L EDTA in Ca^2+ and Mg^2+-free PBS), resuspended in Dulbecco's PBS without Ca^2+ and Mg^2+ and immediately injected into the tail vein of 8-week-old, female nonobese diabetic/severe combined immunodeficient (NOD/SCID) mice (NCI, Bethesda Md.). Each mouse received 10^6 cells. […] Treatment was started immediately after injection or 10 days later for the experiments analyzing the proliferation of established metastasis. For in vivo bioluminescence imaging (BLI), mice were given an intraperitoneal (i.p.) injection with 200 μL of d-luciferin (30 mg/mL). Mice were anesthetized with isoflurane (2% in 1 L/min oxygen), and bioluminescence images were acquired 10 to 15 minutes after d-luciferin injection using the IVIS XR system (Caliper Life Sciences). Acquisition times ranged from 10 seconds (for later time points) to 5 minutes (for early time points). Data are expressed as total photon flux and were analyzed using Living Image 3.0 software (Caliper Life Sciences). For ex vivo BLI, d-luciferin was diluted in PBS to a final concentration of 300 μg/mL and used to soak freshly isolated lungs for 2 to 3 minutes before imaging. Some lungs were stained with India ink, as previously reported (33), or processed and stained with hematoxylin and eosin to corroborate the presence of pulmonary tumors. For homing assays, mice were euthanized 24 hours after the intravenous injection of MDA.pFULG cells. Lungs were perfused with PBS, fixed with freshly prepared formaldehyde (4% in PBS), and frozen in optimum cutting temperature (Sakura Finetek). Cryosections (10 μm) were counterstained with 4′,6-diamidino-2-phenylindole analyzed by confocal microscopy. Animal experiments were approved by the Thomas Jefferson University's Institutional Animal Care and Use Committee.
MDA-MB-231 cells transduced within the Luc2-eGFP lentiviral vector (MDA.pFULG cells) were used in an experimental metastasis model. The Luc2 gene is a codon-optimized version of Luc and cells expressing this reporter were 10 to 100 times brighter than the unmodified Luc gene (30). […]

[4] = test system: MDA-MB-231 cells (MDA.pFULG) established pulmonary metastasis; assay: Growth of established pulmonary metastasis (treatment started 10 days after cell injection); format: in vivo, NOD/SCID mice; details: 8 mg/kg every 12 hours; treatment initiated 10 days after injection of cells
Description: (§3) In FIG. 6A, there is shown the effect of CCR5 antagonist on breast cancer cell viability. […] Graph is from a representative experiment carried out by sextuplicate. No statistical differences were found (ANOVA) in 3 independent experiments. In FIG. 6B, there is shown CCR5 expression in MDA-MB-231 cells stably transfected with pcDNA3.1+/Zeo+ (MDA.Vector) or human CCR5 cloned into pCDNA3+Zeo+ (MDA.CCR5). […] Representative experiment from 2 carried out by sextuplicate. […] Thus, the reduction in tumor mass in the lungs is due to the inhibition of “homing” or spread of tumors to the lung. […] Cells expressing eGFP were counted in 3 random fields of 2 different histologic sections (separated 700 μm from each other) per mouse (n=5 mice per group). […]
(§4) MB-MDA-231 cells expressing Luc2-eGFP (called MDA.pFLUG for the rest of the article) were detached with a nonenzymatic cell dissociation buffer (4 mmol/L EDTA in Ca^2+ and Mg^2+-free PBS), resuspended in Dulbecco's PBS without Ca^2+ and Mg^2+ and immediately injected into the tail vein of 8-week-old, female nonobese diabetic/severe combined immunodeficient (NOD/SCID) mice (NCI, Bethesda Md.). […] Data are expressed as total photon flux and were analyzed using Living Image 3.0 software (Caliper Life Sciences). […] Cryosections (10 μm) were counterstained with 4′,6-diamidino-2-phenylindole analyzed by confocal microscopy. […]

MDA.pFULG cells = assay: Homing assay: lung colonization 24 hours after injection of MDA.pFULG cells; format: in vivo, mice; details: 10 administrations (twice a day for 5 days) before i.v. injection of cells; lungs 24 hours after injection
Description: as §3, §4

[5] = humans; oral dose of 300 mg; cited from earlier work
[6] = mice; 16 mg/kg; cited from earlier work
[7] = 8 mg/kg twice daily, oral gavage

Chain of CCR5 (P51681 whole entry): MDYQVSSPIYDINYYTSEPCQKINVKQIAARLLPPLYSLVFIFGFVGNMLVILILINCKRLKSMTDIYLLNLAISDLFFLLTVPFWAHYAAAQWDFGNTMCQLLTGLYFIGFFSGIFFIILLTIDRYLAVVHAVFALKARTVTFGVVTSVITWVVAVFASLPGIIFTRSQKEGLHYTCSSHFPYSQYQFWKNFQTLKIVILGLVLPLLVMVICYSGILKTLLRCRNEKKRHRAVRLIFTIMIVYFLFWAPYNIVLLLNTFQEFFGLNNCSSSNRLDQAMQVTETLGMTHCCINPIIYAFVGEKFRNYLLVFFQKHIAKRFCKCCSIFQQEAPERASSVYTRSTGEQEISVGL

| SMILES | inhibition of CCL5-induced calcium responses (CCR5) | FBS-induced breast cancer cell invasion [1] | FBS-induced breast cancer cell invasion [2] | cell viability (MTT reduction) (MDA-MB-231 cells) | fraction of treated mice with detectable metastatic tumors [3, 7] | reduction of mean size of metastatic tumors (lung histology) [3, 7] | number and size of pulmonary metastases compared with vehicle-treated mice ([3]; 8 mg/kg twice daily, oral gavage, weekly BLI for 5 weeks) | pulmonary tumor burden ([3]; 16 mg/kg/d divided into 2 doses) | tumor growth of established pulmonary metastasis (in vivo BLI) [4] | reduction of the number of eGFP cells in the lungs (MDA.pFULG cells) | Cmax [5] | Cmax [6] |
| --- | --- | --- | --- | --- | --- | --- | --- | --- | --- | --- | --- | --- |
| COC[C@@H](c1ccc(C(F)(F)F)cc1)N1CCN(C2(C)CCN(C(=O)c3c(C)ncnc3C)CC2)C[C@@H]1C [vicriviroc, (4,6-dimethylpyrimidin-5-yl)-[4-[(3S)-4-[(1R)-2-methoxy-1-[4-(trifluoromethyl)phenyl]ethyl]-3-methylpiperazin-1-yl]-4-methylpiperidin-1-yl]methanone] | 90% | inhibited FBS-induced breast cancer cell invasion | inhibited FBS-induced breast cancer cell invasion | did not affect the MTT reduction | – | – | – | – | – | – | – | – |
| Cc1nnc(C(C)C)n1[C@@H]1C[C@H]2CC[C@@H](C1)N2CC[C@H](NC(=O)C1CCC(F)(F)CC1)c1ccccc1 [maraviroc, 4,4-difluoro-N-[(1S)-3-[(1R,5S)-3-(3-methyl-5-propan-2-yl-1,2,4-triazol-4-yl)-8-azabicyclo[3.2.1]octan-8-yl]-1-phenylpropyl]cyclohexane-1-carboxamide] | 65% | inhibited FBS-induced breast cancer cell invasion | inhibited FBS-induced breast cancer cell invasion | did not affect the MTT reduction | 50% | 65% | significant reduction | significantly reduced | did not modify tumor growth | 40% | 1200 nM | 1040 nM |
